Data taken from ChEMBL document CHEMBL1127819, “Classical and nonclassical furo[2,3-d]pyrimidines as novel antifolates: synthesis and biological activities” (J Med Chem, 1994).

Assays:
[1] = test system: ACHN; assay: Inhibitory activity against kidney A-CHN tumor cell growth in culture; format: functional, cell-based; details: Homo sapiens
[2] = test system: CCRF-CEM; assay: Inhibitory activity against CCRF-CEM tumor cell growth in culture; format: functional, cell-based; details: Homo sapiens
[3] = target: T1, Dihydrofolate reductase (Pneumocystis carinii, UniProt P16184); assay: Inhibitory concentration for DHFR in Pneumocystis carinii
T1 sequence (P16184 whole entry): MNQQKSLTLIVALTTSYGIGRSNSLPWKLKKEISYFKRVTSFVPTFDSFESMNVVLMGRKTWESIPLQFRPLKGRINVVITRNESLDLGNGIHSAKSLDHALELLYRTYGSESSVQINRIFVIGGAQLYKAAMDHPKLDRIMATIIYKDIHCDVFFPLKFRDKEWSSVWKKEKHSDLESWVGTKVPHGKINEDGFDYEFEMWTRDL

[4] = target: T2, Dihydrofolate reductase (Homo sapiens, UniProt P00374); assay: Inhibitory concentration for DHFR in recombinant human
T2 sequence (P00374 whole entry): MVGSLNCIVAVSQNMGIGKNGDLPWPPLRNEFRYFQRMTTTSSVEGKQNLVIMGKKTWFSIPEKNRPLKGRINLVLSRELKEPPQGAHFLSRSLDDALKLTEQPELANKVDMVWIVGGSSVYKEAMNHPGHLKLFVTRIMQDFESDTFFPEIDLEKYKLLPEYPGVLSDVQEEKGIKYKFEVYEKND

[5] = test system: SK-5; assay: Inhibitory activity against melanoma SK-5 tumor cell growth in culture; format: functional, cell-based; details: Homo sapiens
[6] = target: Dihydrofolate reductase (Lactobacillus casei, UniProt P00381)
Description: Inhibitory concentration for DHFR in Lactobacillus casei

[7] = target: T3, Dihydrofolate reductase (Rattus norvegicus, UniProt Q920D2)
T3 sequence (Q920D2 whole entry): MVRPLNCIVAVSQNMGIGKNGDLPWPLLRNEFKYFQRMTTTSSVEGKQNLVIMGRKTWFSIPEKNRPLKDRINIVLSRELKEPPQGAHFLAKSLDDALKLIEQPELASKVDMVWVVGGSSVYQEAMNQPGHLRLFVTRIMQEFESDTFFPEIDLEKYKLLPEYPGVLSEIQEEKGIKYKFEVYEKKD
Description: Inhibitory concentration for DHFR in rat liver

[8] = target: T4, Bifunctional dihydrofolate reductase-thymidylate synthase (Toxoplasma gondii, UniProt Q07422)
T4 sequence (Q07422 whole entry): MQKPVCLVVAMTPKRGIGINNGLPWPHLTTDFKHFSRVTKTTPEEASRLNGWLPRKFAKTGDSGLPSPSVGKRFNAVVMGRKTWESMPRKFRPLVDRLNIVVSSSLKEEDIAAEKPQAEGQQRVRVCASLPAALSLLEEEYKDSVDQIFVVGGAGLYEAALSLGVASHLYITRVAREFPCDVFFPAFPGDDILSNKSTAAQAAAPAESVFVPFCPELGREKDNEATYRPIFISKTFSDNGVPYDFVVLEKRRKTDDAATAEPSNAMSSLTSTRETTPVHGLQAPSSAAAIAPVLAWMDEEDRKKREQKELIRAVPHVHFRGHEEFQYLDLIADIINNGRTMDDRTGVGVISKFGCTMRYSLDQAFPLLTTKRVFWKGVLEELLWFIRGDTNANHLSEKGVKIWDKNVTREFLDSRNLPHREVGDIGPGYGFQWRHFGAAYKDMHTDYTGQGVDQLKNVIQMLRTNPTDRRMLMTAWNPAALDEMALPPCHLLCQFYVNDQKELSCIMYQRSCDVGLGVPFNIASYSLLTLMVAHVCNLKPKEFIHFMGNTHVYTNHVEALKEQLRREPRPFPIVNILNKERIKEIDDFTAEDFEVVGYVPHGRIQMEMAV
Description: Inhibitory concentration for DHFR in Toxoplasma gondii

[9] = test system: 786-0; assay: Growth inhibitory concentration against tumor cells in culture renal cancer […] cell line; format: functional, Homo sapiens
[10] = species on record: Homo sapiens; assay: (§1) Activity is determined as substrate for CCRF-CEM human leukemia cell folyl-poly-glutamate synthetase; format: ADME
[11] = test system: folylpolyglutamate synthetase (FPGS); assay: as §1; format: ADME; details: folylpolyglutamate synthetase from CCRF-CEM leukemia cells
[12] = test system: CCRF-CEM; assay: Growth inhibition of methotrexate resistant human T-lymphoblastic leukemia cell subline CEM/MTX; format: functional, cell-based
[13] = test system: CCRF-CEM; assay: Growth inhibition of human T-lymphoblastic leukemia cell line CCRF-CEM; format: functional, cell-based
[14] = test system: FaDu; assay: Protection of FaDu cells from growth inhibitory effects of compound by combination of 50 uM hypoxanthine (Hx) and 40 uM thymidine (TdR); format: functional, Homo sapiens; parameters: scale not given: the % may be the effect or the level left
[15] = test system: FaDu; assay: Protection of FaDu cells from growth inhibitory effects of compound with no addition; format: functional, Homo sapiens; parameters: scale not given: the % may be the effect or the level left
[16] = test system: FaDu; assay: Growth inhibition of human squamous cell carcinoma FaDu; format: functional, cell-based
[17] = test system: FaDu; assay: Protection of FaDu cells from growth inhibitory effects of compound by 10 uM leucovorin (LV); format: functional, Homo sapiens; parameters: scale not given: the % may be the effect or the level left
[18] = test system: FaDu; assay: Protection of FaDu cells from growth inhibitory effects of compound by 40 uM thymidine (TdR); format: functional, Homo sapiens; parameters: scale not given: the % may be the effect or the level left
[19] = test system: FaDu; assay: Protection of FaDu cells from growth inhibitory effects of compound by 50 uM hypoxanthine (Hx); format: functional, Homo sapiens; parameters: scale not given: the % may be the effect or the level left
[20] = test system: HL-60; assay: Growth inhibitory concentration against tumor cells in culture leukemia cell line, HL-60(TB); format: functional, Homo sapiens
[21] = test system: HCT-116; assay: Growth inhibitory concentration against tumor cells in culture colon cancer HCT116; format: functional, Homo sapiens
[22] = test system: IGROV-1; assay: Growth inhibitory concentration against tumor cells in culture ovarian cancer IGROV-1; format: functional, Homo sapiens
[23] = test system: K562; assay: Growth inhibitory concentration against tumor cells in culture leukemia cell line, K-562; format: functional, Homo sapiens
[24] = test system: MCF7; assay: Growth inhibitory concentration against tumor cells in culture breast cancer cell line, MCF-7; format: functional, Homo sapiens
[25] = test system: LOX IMVI; assay: Growth inhibitory concentration against tumor cells in culture melanoma LOX-IMVI; format: functional, Homo sapiens
[26] = test system: MDA-N; assay: Growth inhibitory concentration against tumor cells in culture breast cancer cell line, MDA-N; format: functional, Homo sapiens
[27] = test system: MDA-MB-435; assay: Growth inhibitory concentration against tumor cells in culture breast cancer cell line, MDA-MB-435; format: functional, Homo sapiens
[28] = test system: NCI-H460; assay: Growth inhibitory concentration against tumor cells in culture non-small-cell-lung NCI-H460; format: functional, Homo sapiens
[29] = test system: PC-3; assay: Growth inhibitory concentration against tumor cells in culture prostate cancer PC-3; format: functional, Homo sapiens
[30] = test system: R30dm-CCRF-CEM; assay: Growth inhibition of methotrexate resistant human T-lymphoblastic leukemia cell subline R30dm; format: functional, cell-based
[31] = test system: SF-268; assay: Growth inhibitory concentration against tumor cells in culture CNS cancer cell line, SF-268; format: functional, Homo sapiens
[32] = target: Thymidylate synthase (Lactobacillus casei, UniProt P00469); assay: Inhibitory concentration for TS in Lactobacillus casei; parameters: species or system Lacticaseibacillus casei
[33] = test system: U-251; assay: Growth inhibitory concentration against tumor cells in cultureCNS cancer cell line, U-251; format: functional, Homo sapiens
[34] = target: Thymidylate synthase (Homo sapiens, UniProt P04818); assay: Inhibitory concentration for TS in human
[35] = test system: FaDu; assay: the growth inhibition of, (during continuous exposure) human squamous cell carcinoma FaDu at resistance mechanism - sensitive
[36] = test system: R30dm-CCRF-CEM; assay: the growth inhibition of, (during continuous exposure) methotrexate resistant human T-lymphoblastic leukemia cell subline R30dm at resistance mechanism - decreased FPGS; format: functional, cell-based

Sequence of Dihydrofolate reductase (Lactobacillus casei, UniProt P00381) (P00381 whole entry): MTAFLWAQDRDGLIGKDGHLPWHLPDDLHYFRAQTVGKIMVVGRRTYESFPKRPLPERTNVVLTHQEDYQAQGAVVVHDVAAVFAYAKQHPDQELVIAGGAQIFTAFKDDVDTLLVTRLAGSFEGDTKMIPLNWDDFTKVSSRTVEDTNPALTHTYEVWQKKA
Sequence of Thymidylate synthase (Lactobacillus casei, UniProt P00469) (P00469 whole entry): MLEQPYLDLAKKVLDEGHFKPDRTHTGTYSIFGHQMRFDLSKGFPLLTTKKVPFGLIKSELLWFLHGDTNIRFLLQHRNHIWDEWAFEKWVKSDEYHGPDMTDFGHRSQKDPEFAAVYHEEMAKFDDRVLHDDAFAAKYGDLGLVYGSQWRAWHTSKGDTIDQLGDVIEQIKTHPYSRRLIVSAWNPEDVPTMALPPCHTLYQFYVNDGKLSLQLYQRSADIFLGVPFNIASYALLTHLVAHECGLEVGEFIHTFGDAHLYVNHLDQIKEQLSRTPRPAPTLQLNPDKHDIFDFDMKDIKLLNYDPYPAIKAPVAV
Sequence of Thymidylate synthase (Homo sapiens, UniProt P04818) (P04818 whole entry): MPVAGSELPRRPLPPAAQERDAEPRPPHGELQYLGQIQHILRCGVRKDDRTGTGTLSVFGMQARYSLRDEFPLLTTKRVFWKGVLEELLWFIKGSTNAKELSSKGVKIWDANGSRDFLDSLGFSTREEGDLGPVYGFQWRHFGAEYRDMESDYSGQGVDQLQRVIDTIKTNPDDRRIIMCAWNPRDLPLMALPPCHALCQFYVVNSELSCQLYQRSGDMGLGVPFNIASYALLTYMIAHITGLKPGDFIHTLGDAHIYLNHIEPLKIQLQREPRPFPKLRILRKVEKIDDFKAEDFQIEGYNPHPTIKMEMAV

Row | SMILES | IC50 [1] | IC50 [2] | IC50 [3] | IC50 [4] | IC50 [5] | IC50 [6] | IC50 [7] | IC50 [8] | Vmax [10] | Km [11] | Control [14] | Control [15] | Control [17] | Control [18] | Control [19] | also measured
1 | COc1cc(NCc2coc3nc(N)nc(N)c23)cc(OC)c1OC | > 130 µM | 111 µM | > 4 µM | > 26 µM | > 130 µM | > 26 µM | > 37 µM | 4 µM |  |  |  |  |  |  |  | 
2 | COc1ccc(OC)c(NCc2coc3nc(N)nc(N)c23)c1 | > 160 µM | 132 µM | > 21 µM | > 15 µM | > 160 µM | > 31 µM | > 21 µM | > 21 µM |  |  |  |  |  |  |  | 
3 | Nc1nc(N)c2c(CNc3cc(Cl)c(Cl)c(Cl)c3)coc2n1 | 40.9 µM | 10.6 µM | 8.3 µM | > 25 µM | 47.6 µM | > 25 µM | 25.6 µM | > 3.9 µM |  |  |  |  |  |  |  | 
4 | Nc1nc(N)c2c(CNc3ccc(C(=O)NC(CCC(=O)O)C(=O)O)cc3)coc2n1 (configuration not stated) | > 100 µM | 0.59 µM | 0.9 µM | 0.45 µM | > 100 µM | 0.56 µM | 1.3 µM | 0.7 µM | 0.45 rel | 1.9 µM | 82% | 4.9% | 110% | 18.4% | 4.5% | IG50 [9]: 0.91 µM; EC50 [12]: 3.17 µM; EC50 [13]: 0.142 µM; EC50 [16]: 0.126 µM; IG50 [20]: 0.02 µM; IG50 [21]: 0.09 µM; IG50 [22]: >100 µM; IG50 [23]: 0.06 µM; IG50 [24]: 6.31 µM; IG50 [25]: 1.23 µM; IG50 [26]: 1.73 µM; IG50 [27]: 45.8 µM; IG50 [28]: 3.75 µM; IG50 [29]: 0.7 µM; EC50 [30]: 0.663 µM; IG50 [31]: 1.77 µM; IC50 [32]: > 200 µM; IG50 [33]: 1.97 µM; IC50 [34]: > 200 µM
5 | Nc1nc(N)c2c(CNc3ccc(Cl)c(Cl)c3)coc2n1 | > 150 µM | 40.9 µM | > 35 µM | > 15 µM | > 150 µM | > 3 µM | 35.2 µM |  |  |  |  |  |  |  |  | 
6 | CN(Cc1coc2nc(N)nc(N)c12)c1ccc(C(=O)NC(CCC(=O)O)C(=O)O)cc1 (configuration not stated) | 0.837 µM | 0.043 µM | 0.035 µM |  | 14 µM | 0.22 µM | 0.43 µM | 19.8 µM | 0.75 rel | 4.65 µM | 80% | 6.6% | 106% | 17.1% | 1.9% | IG50 [9]: 0.07 µM; EC50 [12]: 2.27 µM; EC50 [13]: 0.047 µM; EC50 [16]: 0.055 µM; IG50 [20]: <0.01 µM; IG50 [21]: 0.02 µM; IG50 [22]: 0.73 µM; IG50 [23]: 0.024 µM; IG50 [24]: 0.08 µM; IG50 [25]: 0.04 µM; IG50 [26]: 0.065 µM; IG50 [27]: 0.09 µM; IG50 [28]: 0.15 µM; IG50 [29]: <0.01 µM; EC50 [30]: 1.03 µM; IG50 [31]: 0.59 µM; IC50 [32]: > 200 µM; IG50 [33]: 0.75 µM; IC50 [34]: > 200 µM
7 | Nc1nc(N)c2nc(CNc3ccc(C(=O)N[C@@H](CCC(=O)O)C(=O)O)cc3)cnc2n1 [AMINOPTERIN] |  |  |  |  |  |  |  |  | 1 rel | 6.8 µM |  |  |  |  |  | 
8 | CN(Cc1cnc2nc(N)nc(N)c2n1)c1ccc(C(=O)N[C@@H](CCC(=O)O)C(=O)O)cc1 [METHOTREXATE] |  |  |  |  |  |  |  |  |  |  | 98% | 2.5% | 114% | 7.3% | 11% | EC50 [35]: 0.019 µM; EC50 [36]: 0.018 µM
